Measured values published in ChEMBL document CHEMBL1201862, “PubChem BioAssay data set” (2004).
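Each compound was tested at five concentrations against cells in 96-well plates for 48 hours. GI50 marks 50% less growth.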 Active and inactive are the calls of the source. Cut-off read from the data, not from the text of the source: active = GI50 up to about 1.1 µM and inactive = higher.

Columns and labels:
Experiment in all cases: DTP human tumour cell line panel, 48 h
SF-539 = tested on: SF-539
SK-OV-3 = tested on: SK-OV-3
ACHN = tested on: ACHN
OVCAR-4 = tested on: OVCAR-4
U-251 = tested on: U-251
SNB-19 = tested on: SNB-19
SK-MEL-2 = tested on: SK-MEL-2
HOP-92 = tested on: HOP-92
M14 = tested on: M14
HCC 2998 = tested on: HCC 2998
A549 = tested on: A549
LOX IMVI = tested on: LOX IMVI
TK-10 = tested on: TK-10
UACC-62 = tested on: UACC-62
MOLT-4 = tested on: MOLT-4
UACC-257 = tested on: UACC-257
SK-MEL-5 = tested on: SK-MEL-5

Row | SMILES | GI50 (SF-539) | GI50 (SK-OV-3) | GI50 (ACHN) | GI50 (OVCAR-4) | GI50 (U-251) | GI50 (SNB-19) | GI50 (SK-MEL-2) | GI50 (HOP-92) | GI50 (M14) | GI50 (HCC 2998) | GI50 (A549) | GI50 (LOX IMVI) | GI50 (TK-10) | GI50 (UACC-62) | GI50 (MOLT-4) | GI50 (UACC-257) | GI50 (SK-MEL-5)
1 | COc1ccc(/C=C/C(=N\NC(=O)c2ccccc2)c2sc(Nc3ccc([N+](=O)[O-])cc3)nc2C)cc1OC | 21.1 µM (inactive) | 45.8 µM (inactive) | 14.7 µM (inactive) | 11.6 µM (inactive) | 5.3 µM (inactive) | 12.4 µM (inactive) | 15.9 µM (inactive) | < 0.01 µM (active) | 14.1 µM (inactive) | 29.6 µM (inactive) | 10.6 µM (inactive) | 3.75 µM (inactive) | 29.3 µM (inactive) | 2.75 µM (inactive) | 2.77 µM (inactive) | 12.6 µM (inactive) | 
2 | CC1(c2ccc(Cl)cc2)C2C(=O)NC(=O)C1C(=O)NC2=O (centres undefined) | > 100 µM (inactive) | > 100 µM (inactive) | > 100 µM (inactive) | > 100 µM (inactive) |  | > 100 µM (inactive) | > 100 µM (inactive) | > 100 µM (inactive) | > 100 µM (inactive) | > 100 µM (inactive) | > 100 µM (inactive) | > 100 µM (inactive) | > 100 µM (inactive) | > 100 µM (inactive) | > 100 µM (inactive) | > 100 µM (inactive) | > 100 µM (inactive)
3 | CCOC(=O)CC(=O)ON(C)C(=O)Cc1ccccc1 | > 100 µM (inactive) | > 100 µM (inactive) | > 100 µM (inactive) | > 100 µM (inactive) | > 100 µM (inactive) | > 100 µM (inactive) | > 100 µM (inactive) |  | > 100 µM (inactive) |  | > 100 µM (inactive) | > 100 µM (inactive) | > 10 µM (inactive) | > 100 µM (inactive) |  | > 100 µM (inactive) | > 100 µM (inactive)
4 | C[P+](C)(C)c1ccccc1 | > 100 µM (inactive) | > 100 µM (inactive) | > 100 µM (inactive) | > 100 µM (inactive) | > 100 µM (inactive) | > 100 µM (inactive) | > 100 µM (inactive) | > 100 µM (inactive) | > 100 µM (inactive) | > 100 µM (inactive) | > 100 µM (inactive) | > 100 µM (inactive) | > 100 µM (inactive) | > 100 µM (inactive) | > 100 µM (inactive) | > 100 µM (inactive) | > 100 µM (inactive)
5 | Cc1cc(N(CCC#N)CCC#N)ccc1/N=N/c1cccc(C(=O)O)c1 | > 100 µM (inactive) | > 100 µM (inactive) | > 100 µM (inactive) | > 100 µM (inactive) | > 100 µM (inactive) |  | > 100 µM (inactive) |  | > 100 µM (inactive) | > 100 µM (inactive) | > 100 µM (inactive) | > 100 µM (inactive) | > 100 µM (inactive) | 60.5 µM (inactive) | > 100 µM (inactive) | > 100 µM (inactive) | > 100 µM (inactive)
6 | COc1ccc(/C(Cl)=C(\CN(C)C)c2ccc(OC)c(OC)c2)cc1OC.[B] | 4.72 µM (inactive) | 14.2 µM (inactive) | > 100 µM (inactive) | 1.19 µM (inactive) | 8.61 µM (inactive) | 17 µM (inactive) |  | 2.22 µM (inactive) | > 100 µM (inactive) | > 100 µM (inactive) | > 100 µM (inactive) | > 100 µM (inactive) | 13.7 µM (inactive) | 3.94 µM (inactive) | > 100 µM (inactive) | > 100 µM (inactive) | > 100 µM (inactive)
7 | Cc1cc(O)nc(NNC(C#N)c2cccc(O)c2)n1 (centres undefined) | > 100 µM (inactive) | > 100 µM (inactive) | > 100 µM (inactive) | > 100 µM (inactive) | > 100 µM (inactive) |  | > 100 µM (inactive) | > 100 µM (inactive) | > 100 µM (inactive) |  | > 100 µM (inactive) | > 100 µM (inactive) | > 100 µM (inactive) | 75.7 µM (inactive) | > 100 µM (inactive) | > 100 µM (inactive) | > 100 µM (inactive)
8 | COc1ccc(C2Oc3cc(OC)c(O)cc3[C@@H]2C)cc1 (some centres undefined) | > 100 µM (inactive) | > 100 µM (inactive) | 16.5 µM (inactive) | 32.5 µM (inactive) | > 100 µM (inactive) | 1.87 µM (inactive) | 43 µM (inactive) | 15.3 µM (inactive) | 19.1 µM (inactive) | 57.5 µM (inactive) | 59 µM (inactive) | 14.3 µM (inactive) | 45.8 µM (inactive) | > 10 µM (inactive) | 14.9 µM (inactive) | 44.6 µM (inactive) | 31.1 µM (inactive)
9 | O=C(c1ccc(O)cc1O)C1C(c2ccc(O)cc2)OC(c2ccc(O)cc2)C1C(=O)c1ccc(O)cc1O (centres undefined) | 20 µM (inactive) |  | 22.2 µM (inactive) | 28.4 µM (inactive) | 16.5 µM (inactive) | 20.6 µM (inactive) | 22 µM (inactive) |  | 18 µM (inactive) | 13.8 µM (inactive) | > 100 µM (inactive) | 19.5 µM (inactive) | 14.7 µM (inactive) |  |  | 20.5 µM (inactive) | 16.1 µM (inactive)
